Results as given in US20200306283A1, “CANCER TREATMENT AND METASTASIS INHIBITION USING AN ANTI-CANCER STEM CELL AGENT IN COMBINATION WITH A NEU1 SIALIDASE INHIBITOR OR A CYTOKINE INHIBITOR AFTER PRIMARY CANCER TREATMENT” (priority 2016, published 2020).

Tests used:
HCT-15 cells = assay: Cell subpopulations (CD44/CD24) in HCT-15 cell line after cytokine exposure, imaging flow cytometry; format: cell-based; set-up: unit not given here; conditions: HCT-15 cells after exposure to cytokines singly or in pairs
Protocol: Two authenticated colorectal carcinoma cell lines, HCT-15 and SW-620, were used to test the effect of different cytokine and cytokine cocktails, including IL-6, HGF, PGE-2, TGF-beta and MMP-9 alone or in a cocktail, on cell proliferation, EMT and cancer stem cell populations.
In order to evaluate stem cell populations, cells were synchronized by serum starvation for 72 hours before seeding in 24-well ultra low attachment plates at a density of 200,000 cells/well. Cells were then detached using trypsin EDTA and washed twice with PBS (without Calcium or Magnesium). A cell proliferation dye, eFluor 450 was used to label cells. Cells were grown with DMEM with high glucose and 2 mM Gluatmine without FBS in the presence of selected cytokines and or cytokine cocktails over a period of 72 hrs.
Cells that were grown in 5% serum were stained with the following antibody cocktails: CD24FITC, CD44PE and CD24FITC, CD133PE. Cells were also stained with a fixable live/dead efluor dye 506 to exclude dead cells. In parallel, cells were grown in the presence of 5% serum to evaluate CSC markers.
(§1) Cells were fixed in 1% Paraformaldehyde for 15 minutes at room temperature and run on Flowsight using 2 lasers (488 nm at 60 mW and 405 nm at 30 mW). For cell lines, 100,000 events were collected whilst for enriched CTCs all events were collected until the sample finished.
(§2) Flow cytometry data was analysed using IDEAS software. Double events, out of focus events, CD45PercPCy5.5 positive cells (in case of enriched CTCs), dead cells and non-nucleated events were eliminated from the fluorescence analysis of the cell population. FIG. 2 depicts scatterplots of flow cytometry experiments showing the enriched CTCs stained with an antibody containing CD44 after treatment with various cytokines and cytokine cocktails. Hoescht 33258 dye was used to stain nuclei in the case of the HCT-15 cell line and enriched CTCs. All experiments were stained with a fixable live/dead dye eFluor 506 to exclude dead cells.
To evaluate which cocktail combinations were most likely involved in cell proliferation of presumed quiescent stem cells or de-differentiated stem cell-like cells, four cytokines, IL-6, HGF, PGE-2 and TGF-beta were added singly or in pairs to HCT-15 cells. Results of combinations that influenced cell proliferation of HCT-15 cells in culture are presented. […] FIG. 4 depicts cell proliferation of subpopulations in the HCT-15 cell line after exposure to various cytokines and cytokine cocktails.

[1] = test system: enriched circulating tumour cells from a patient with metastatic prostate cancer; assay: Cell proliferation / cancer stem cell markers (EpCAM, CD44, CD133) in enriched CTCs cultured with cytokine cocktails; format: cell-based, human; conditions: for EpCAM + CD133+ cell subpopulation / EpCAM + CD133− cell subpopulation / EpCAM − CD133+ cell subpopulation / EpCAM − CD133− cell subpopulation: CD133 PE antibody cocktail; for EpCAM + CD44+ cell subpopulation / EpCAM + CD44− cell subpopulation / EpCAM − CD44+ cell subpopulation / EpCAM − CD44− cell subpopulation: cell culture period 8 days
Protocol: as §1
as §2, with “cocktails.” for “cocktails. Hoescht 33258 dye was used to stain nuclei in the case of the HCT-15 cell line and enriched CTCs. All experiments were stained with a fixable live/dead dye eFluor 506 to exclude dead cells.”
In order to determine if selected cytokines influence cell proliferation of circulating tumour cells (CTCs), whole blood was collected from a patient with metastatic prostate cancer. Circulating tumour cells were enriched from whole blood using RosetteSep CTC Enrichment cocktail. Briefly, samples of whole blood were incubated with RosetteSep (anti CD 56 for 20 minutes at room temperature). Phosphate buffered saline containing 2% Fetal Bovine Serum was added to the samples and layered on a Ficoll Paque gradient. After centrifugation, the supernatant which contained CTCs was washed twice with PBS containing 2% FBS. Equal volumes of the cell suspension were seeded into a 24-well ultra-low attachment polystyrene plate. […] FIG. 3 depicts scatterplots of flow cytometry experiments enriched CTCs stained with an antibody containing CD133 after treatment with various cytokines and cytokine cocktails.
FIG. 6 depicts cell proliferation of subpopulations in cultured CTCs after exposure to various cytokines and cytokine cocktails. Cells were stained using an antibody containing CD44 PE.
Cells were stained using an antibody containing CD133 PE.

SW-620 cells = SW-620 cells treated with cytokines with or without Irinotecan, flow cytometry for stem cell markers and apoptosis; format: cell-based, human; conditions: SW-620, cytokines 24 hours then 2 μM Irinotecan 36 hours; zero in non-treated control cells
Protocol: SW-620 cells, a human colorectal adenocarcinoma cell line, were treated with cytokines alone or in combination including IL-6, TGF-beta, HGF, PGE-2, IL-6+PGE-2 and TGF-beta+HGF for 24 hours and compared to untreated SW-620 cells as control. Some treated and untreated SW-620 cells were then exposed to 2 μM Irinotecan for 36 hours at which point cells were harvested for flow cytometry to assess for stem cell markers and markers of apoptosis. The percentage of CD44+CD133− cells following treatment with various cytokine and cytokine cocktails is depicted in FIG. 10. Compared to non-cytokine treated cells, combinations with IL-6+PGE-2, and TGF-beta+HGF increased the number and percentage of cells that were CD44+CD133− as shown in FIG. 10 (stem cells). FIG. 11 depicts the percentage of CD44+CD133− cells following treatment with various cytokines and Irinotecan. […]
Additionally, the percentage of CD44-CD133+ cells following treatment with various cytokines and cytokines cocktails was determined as depicted in FIG. 16. The percentage of CD44-CD133+ cells following treatment with various cytokines and Irinotecan was measured as depicted in FIG. 17. The percentage of CD44-CD133+ cells following treatment with various cytokine cocktails and Irinotecan was measured as depicted in FIG. 18. […]

[2] = test system: Panc1, Panc1-gemr, Panc1-cisr and Panc1-gemr/cisr cells; assay: Immunocytochemistry of E-, N- and VE-cadherin on Panc1 and chemoresistant Panc1 cells after Tamiflu (FIG. 25); format: cell-based, human; conditions: Tamiflu 600 μg/mL for 24 hours, Panc1 and drug resistant lines
Protocol: Turning to FIG. 25, oseltamivir phosphate by itself was able to reverse a partial EMT in human PANC1 cancer cell lines, including drug resistant cancer cell lines as evidenced by an upregulation in the epithelial marker E-cadherin and a downregulation in the mesenchymal marker N-cadherin. Expression of e-cadherin, n-cadherin, and Ve-cadherin on the surface of Pancl, Pancl-gemr, Pancl-cisr, and Pancl-gemr/cisr cells were determined following treatment with Tamiflu® 600 μg/mL for 24 hours. Immunocytochemistry was performed on fixed, nonpermeabilized cells. The indicated primary antibodies for Ecadherin, N-cadherin, and Ve-cadherin were used, followed by alexa Fluor® 594 (life Technologies inc, Burlington, ON, Canada) secondary antibody for the primary antibody against n-cadherin and Dylight™ 488 (santa cruz Biotechnology, inc, santa cruz, ca, Usa) secondary antibody for primary antibodies against e-cadherin and Ve-cadherin. The background controls had no primary antibody during the staining procedure. The stained cells were visualized after 24 hours using a Zeiss M2 Imager fluorescence microscope (Carl Zeiss ag, Oberkochen, germany) at 400× magnification. Images are representative of at least four fields of view in three separate trials. Quantitative analysis was done by assessing the density of cell staining corrected for background in each panel using corel Photo Paint 8.0 software (Corel Corporation, Ottawa, ON, Canada). each bar in the figures represents the mean (±standard error of the mean) corrected density of culture cell staining for equal cell density (5×10^5 cells) within the respective images. P-values represent significant differences at 95% confidence using Dunnett's multiple comparison test compared with untreated control group. (Abbreviations: 1° ab=primary antibody; Pancl-gemr=Pancl cells with established chemoresistance to 0.01 μM gemcitabine; Pancl-gemr/cisr=Pancl cells with established chemoresistance to a combination of 0.01 μM gemcitabine and 80 μM cisplatin; cad=cadherin; Bkg=background; se=standard error.)

[3] = test system: enriched circulating tumour cells from a patient with colorectal cancer; assay: Cultured enriched CTCs from a colorectal cancer patient treated with IL-6, IL-8 or PDGFBB (EpCAM, CD133, Lgr5 flow cytometry); format: cell-based, human; conditions: cultured CTCs from colorectal cancer patient
Text: A blood sample was collected from a patient with colorectal cancer six days after surgery. Blood samples were enriched for CTCs using RosetteSep CD 56 kit according to standard protocol. Prior to cell culture, cells were stained with the following antibody cocktail: EpCAM A488, CD133PE, CD 45 PerCP Cy5.5, and Lgr5-PE-Vio770. Cells were either cultured in low attachment well plates without cytokines (control cells) or with three different cytokines (IL-6, IL-8 or PDGFBB).
Flow cytometry data was analysed using IDEAS software. Double events, out of focus events, CD45PercPCy5.5 positive cells, dead cells and non-nucleated events were eliminated from the fluorescence analysis of the cell population. Hoescht 33258 dye was used to stain nuclei of enriched CTCs. All experiments were stained with a fixable live/dead dye eFluor 506 to exclude dead cells.

[4] = listed as Oseltamivir Phosphate

Compound | CD24 + CD44− cell subpopulation (HCT-15 cells) | CD44 + CD24+ cell subpopulation (HCT-15 cells) | CD44 + CD24− cell subpopulation (HCT-15 cells) | CD44 − CD24− cell subpopulation (HCT-15 cells) | EpCAM + CD133+ cell subpopulation [1] | EpCAM + CD133− cell subpopulation [1] | EpCAM − CD133+ cell subpopulation [1] | EpCAM − CD133− cell subpopulation [1] | EpCAM + CD44+ cell subpopulation ([1]; CD44PE antibody cocktail) | EpCAM + CD44− cell subpopulation ([1]; CD44PE antibody cocktail) | EpCAM − CD44+ cell subpopulation ([1]; CD44PE antibody cocktail) | EpCAM − CD44− cell subpopulation ([1]; CD44PE antibody cocktail) | also measured
CCCCC[C@H](O)/C=C/[C@H]1[C@H](O)CC(=O)[C@@H]1C/C=C\CCCC(=O)O [PGE-2, prostaglandin E2, reference compound] | 58.7 | 7.3 | 0.61 | 32.4 | 10.4 percentages of gated subpopulations | 0 percentages of gated subpopulations | 86.7 percentages of gated subpopulations | 2.61 percentages of gated subpopulations | 27.2 percentage of gated cells | 1.75 percentage of gated cells | 4.23 percentage of gated cells | 65.5 percentage of gated cells | EpCAM-CD44+ cell sub-population ([1]; 8 days culture, no serum, CD44PE antibody cocktail): 4.23 % gated; percentage of CD44+CD133− stem cells (SW-620 cells): enriched
CCOC(=O)C1=C[C@@H](OC(CC)CC)[C@H](NC(C)=O)[C@@H](N)C1 [oseltamivir phosphate] |  |  |  |  |  |  |  |  |  |  |  |  | E-cadherin expression on cell surface [2]: upregulation; N-cadherin expression on cell surface [2]: downregulation; VE-cadherin expression on cell surface [2]: significant downregulation; E-cadherin expression on cell surface [2, 4]: statistically significant upregulation in the epithelial marker E-Cadherin in all 4 cell lines tested with the exception of the double resistant pancreatic cell line; N-cadherin expression on cell surface [2, 4]: Downregulation of N cadherin was seen in all cell lines tested
Il-8 |  |  |  |  |  |  |  |  |  |  |  |  | EpCAM + CD133+ cell subpopulation [3]: 0.13 percentages of gated subpopulations; EpCAM + CD133− cell subpopulation [3]: 2.51 percentages of gated subpopulations; EpCAM − CD133+ cell subpopulation [3]: 0.09 percentages of gated subpopulations; EpCAM − CD133− cell subpopulation [3]: 90.8 percentages of gated subpopulations
HGF: Hepatocyte Growth Factor added to cancer cells in culture | 58.6 | 3.29 | 0.31 | 35.9 | 17.2 percentages of gated subpopulations | 0.2 percentages of gated subpopulations | 80.8 percentages of gated subpopulations | 1.58 percentages of gated subpopulations | 16.8 percentage of gated cells | 4.89 percentage of gated cells | 2.12 percentage of gated cells | 74.9 percentage of gated cells | 
